The values that follow come from patent US10189856B2 (Adverio Pharma GMBH, priority 2010, dated 2019).

“Also recorded” adds a separate entry of the source.

One data set relates to conscious mice. The data set can be described thus: Haemodynamic effects in conscious mice with telemetric implants (Example D). It counts as in vivo. As to conditions: result in words, dosages with antifibrotic properties. As to the method: The haemodynamic effects of i.e. example, the compound of formula 3, the compound of formula 4, the compound of formula 6 were analyzed in conscious mice. Telemetric implants (DSI®) were used. Signals were received with RMC1-DSI® receiver plates, compiled and analyzed with PONEMAH® physiology platform software.
The mice received either placebo (tylose), 0.3 mg/kg the compound of formula 27, 1 mg/kg the compound of formula 27, 3 mg/kg the compound of formula 27 (FIG. 1), 1.0 mg/kg the compound of formula 3, 3.0 mg/kg the compound of formula 3, 10.0 mg/kg the compound of formula 3 (FIG. 2A,2B), 1.0 mg/kg the compound of formula 4, 3.0 mg/kg the compound of formula 4, 10.0 mg/kg the compound of formula 4 (FIG. 3A/3B), 0.3 mg/kg the compound of formula 6, 1.0 mg/kg the compound of formula 6, 3.0 mg/kg, 10.0 mg/kg the compound of formula 6 (FIG. 4A/4B). The blood pressure and heart rate was monitored before and after application of placebo or the compounds.

For data set [1], the system named is Bleomycin-induced skin fibrosis. The data set can be described thus: Bleomycin-induced skin fibrosis, preventive dose-regimen (Example A). It counts as in vivo, mice. Particulars: for Collagen content / Myofibroblast count / Dermal thickness: Table 2; for Collagen content: bleomycin + vehicle 1.56; for Myofibroblast count: bleomycin + vehicle 3.86; for Dermal thickness: vs vehicle-treated control, bleomycin + vehicle 1.71; for dermal thickness, hydroxyproline content of the skin and the number of dermal myofibroblasts: result in words, bleomycin-induced SSc in mice, preventive dose-regimen. The procedure: Local skin fibrosis was induced in 6-week-old, pathogen-free, female DBA/2 mice (Charles River, Sulzfeld, Germany) by repeated (every other day) subcutaneous injections of bleomycin (0.5 mg/ml in saline) in a defined area of the upper back. Control mice were injected in the same manner with saline only and served as reference. For all groups the injection volume was 100 μl. Concomitant to bleomycin treatment, the mice were treated orally with test drug or vehicle. Mice were treated a) with vehicle b) with 1 mg/kg compound of formula 27, and c) with 3 mg/kg compound of formula 27, twice a day via gavage for 21 days. After this 3 weeks treatment period, the animals were sacrificed and skin samples were obtained for analysis.
The injected skin areas were fixed in 4% formalin and embedded in paraffin. Histological sections were stained with hematoxylin and eosin for the determination of dermal thickness. The dermal thickness was determined by measuring the largest distance between the epidermal-dermal junction and the dermal-subcutaneous fat junction. The measurements were performed by an examiner blinded to the treatment of the mice.
To analyze the collagen content in skin samples, hydroxyproline assay was performed. After digestion of punch biopsies (Ø 3 mm) in 6M HCl for three hours at 120° C., chloramine T (0.06 M) was added and samples were mixed and incubated for 20 min at room temperature. 3.15 M perchloric acid and 20% p-dimethylaminobenzaldehyde were added and samples were incubated for additional 20 min at 60° C. The absorbance was determined at 557 nm.
The expression of α-smooth muscle actin (αSMA) was analyzed in paraffin embedded sections. After deparaffinization, samples were incubated with 3% bovine serum albumin followed by incubation with 3% H2O2. αSMA positive cells in mouse sections were detected by incubation with monoclonal anti-αSMA antibodies (clone 1A4, Sigma-Aldrich, Steinheim, Germany). Irrelevant isotype antibodies in the same concentration were used for control (Santa Cruz Biotechnology, Santa Cruz, Calif., USA). Antibodies labeled with horseradish peroxidase (Dako, Hamburg, Germany) were used as secondary antibodies. The expression of the NICD and αSMA was visualized with DAB peroxidase substrate solution (Sigma-Aldrich). The number of myofibroblasts was counted from 4 different sections of lesional skin for each mouse by an examiner blinded to the treatment of the mice.

Data set [2] shares this test system. Described as above. As to conditions: Table 2, 0.3 mg/kg. It is filed as in vivo, mice.
Data set [3] concerns established Bleomycin-induced skin fibrosis. The experiment in a line: Established bleomycin-induced skin fibrosis, therapeutic dose-regimen (Example B). As to conditions: result in words; bleomycin-induced SSc in mice, therapeutic dose-regimen after established fibrosis. It counts as in vivo. As to the method:
Local skin fibrosis was induced in 6-week-old, pathogen-free, female DBA/2 mice (Charles River, Sulzfeld, Germany) by repeated (every other day) subcutaneous injections of bleomycin (0.5 mg/ml in saline) in a defined area of the upper back. Control mice were injected in the same manner with saline only. For all groups the injection volume was 100 μl. The study comprises 4 arms with • a) mice receiving saline injection for 6 weeks (serving as reference) • b) mice receiving Bleomycin injection for 6 weeks • c) mice receiving Bleomycin injection for 6 weeks and additional treatment with the compound of formula 27 (3 mg/kg) twice a day via gavage for the last 3 weeks • d) mice receiving the first 3 weeks bleomycin injections and the second 3 weeks saline injection.
After 6 weeks the animals were sacrificed and skin samples were obtained for analysis.
(§1) Histological analysis, hydroxyproline assay and immunohistochemistry for α-smooth muscle actin were performed as described in the Example 1 section.

A further data set relates to Tsk-1 mice. The experiment in a line: Tight skin (Tsk-1) mouse model of systemic sclerosis (Example C). It counts as in vivo. As to conditions: result in words; TSK mice with established fibrosis before start of treatment. As to the method: In addition to the mouse model of bleomycin-induced dermal fibrosis, the tight-skin (Tsk-1) mouse model of systemic sclerosis was used to evaluate the anti-fibrotic potential of test drugs. Due to a dominant mutation in fibrillin-1, the phenotype of Tsk-1 is characterized by an increased hypodermal thickness. Genotyping of Tsk-1 mice was performed by PCR with the following primers: mutated fibrillin-1/Tsk-1 forward primer: 5′-[…]-3′, reverse primer: 5′-[…]-3′. Tsk-1 mice were treated daily with test drug or vehicle, respectively, by oral gavage. In addition, a group of corresponding wild type(pa/pa) mice was treated with vehicle. The treatment was started at an age of five weeks. After five weeks of treatment, mice were sacrificed by cervical dislocation and skin samples were obtained for analysis.
as §1

The subject of a further data set is human dermal fibroblasts. The experiment in a line: TGFbeta-induced collagen gene expression and hydroxyproline deposition in human dermal fibroblasts (Example E). Particulars: result in words; human dermal fibroblasts in vitro. It counts as cell-based. As to the method: The effects of the compound of formula 27 and vardenafil as stand alone and in combination were analyzed in vitro in human dermal fibroblasts in vitro.

With `COC(=O)N(C)c1c(N)nc(-c2nn(Cc3ccccc3F)c3ncc(F)cc23)nc1N`, the “haemodynamic profile (blood pressure and heart rate)” value (from here on “haemodynamic profile”) with conscious mice was “did not or only moderately, change”.

For `COC(=O)N(C)c1c(N)nc(-c2nn(Cc3ccccc3F)c3ncccc23)nc1N` [compound of formula 3, Methyl-4,6-diamino-2-[1-(2-fluorobenzyl)-1H-pyrazolo[3,4-b]pyridine-3-yl]-5-pyrimidinyl-(methyl)carbamate], in data set [1] (1 mg/kg), the Collagen content came to 1.38 x-fold change, the Myofibroblast count amounted to 2.55 x-fold change and the Dermal thickness is reported as 1.38 x-fold change. For the same compound, in data set [1], the “dermal thickness, hydroxyproline content of the skin and the number of dermal myofibroblasts” value (“dermal thickness, hydroxyproline content” below) was “significantly reduced; also recorded: dose dependent and significant effects”. In the data set with conscious mice, the “haemodynamic profile” value is given as “did not or only moderately, change”.

As to `COC(=O)Nc1c(N)nc(-c2nn(Cc3ccccc3F)c3ncccc23)nc1N` [compound of formula 4, Methyl-4,6-diamino-2-[1-(2-fluorobenzyl)-1H-pyrazolo[3,4-b]pyridine-3-yl]-5-pyrimidinyl-carbamate], the “haemodynamic profile” value in the data set on conscious mice is reported as “did not or only moderately, change”.

As for `COC(=O)Nc1c(N)nc(-c2nn(Cc3ccccc3F)c3ncc(F)cc23)nc1N` [compound of formula 6, Methyl-{4,6-diamino-2-[5-fluoro-1-(2-fluorobenzyl)-1H-pyrazolo[3,4-b]pyridine-3-yl]pyrimidine-5-yl}carbamate], the Collagen content in data set [1] (1 mg/kg) stood at 1.28 x-fold change; in data set [1] (3 mg/kg), 1.20 x-fold change; in data set [2] (bleomycin + vehicle 1.56) it was 1.41 x-fold change. Further, the Myofibroblast count in data set [1] (1 mg/kg) was determined as 2.05 x-fold change; in data set [1] (3 mg/kg), 1.49 x-fold change; in data set [2] (bleomycin + vehicle 3.86), 3.13 x-fold change. Further, the Dermal thickness in data set [1] (1 mg/kg) was 1.24 x-fold change; in data set [1] (3 mg/kg), 1.19 x-fold change; in data set [2] (vs vehicle-treated control, bleomycin + vehicle 1.71), 1.41 x-fold change. For the same compound, the “dermal thickness, hydroxyproline content” value in data set [1] was “significantly reduced; also recorded: dose dependent and significant effects”.

As for `Nc1nc(-c2nn(Cc3ccccc3F)c3ncccc23)ncc1C1CC1` [compound of formula 27, 3-(4-Amino-5-cyclopropylpyrimidin-2-yl)-1-(2-fluorobenzyl)-1H-pyrazolo[3,4-b]pyridine], the “dermal thickness, hydroxyproline content” value (in data set [1]; in data set [3]; in the data set on Tsk-1 mice) was “significantly reduced” in each case. Further, the “haemodynamic profile” value in the data set on conscious mice was “did not or only moderately, change”. Also, the “TGFbeta-induced Collagen gene expression” value in the data set with human dermal fibroblasts is reported as “significantly blocked”. In addition, the “TGFbeta-induced Hydroxyproline (HP) deposition” value with human dermal fibroblasts is “significantly blocked”.
